Experimental data as given in publication PMC11099041, “Tissue distribution and retention drives efficacy of rapidly clearing VHL-based PROTACs” (Communications Medicine, 2024).

Conditions: rat, in vivo
From the text: Male Sprague Dawley rats, intact or bile-cannulated, were from Envigo RMS, Inc. The animals were acclimated to study conditions for five days prior to dose administration. During acclimation, animals were individually housed in suspended, stainless steel, wire-mesh cages. During the test period, animals were placed in Nalgene cages designed for the collection of urine, feces, and bile. Certified Rodent Diet #2016C or 2016CM (Envigo RMS, Inc.) were provided ad libitum. Water was provided fresh daily. Environmental controls for the animal room were set to maintain a temperature of 20-26 °C, a relative humidity of 50 ± 20%, and a 12-hour light/12-hour dark cycle. […] Three BDC rats were used for collection of bile, urine, and feces, five intact rats for collection of plasma, blood, urine, feces, and tissues, and eight intact rats for collection of blood and carcasses for QWBA. […] The vehicle for the IV dose was 20% 2-hydroxypropyl-β-cyclodextrin (HP-β-CD) in 50 mM sodium acetate buffer, pH 4.0. […] The supernatant was removed, and the formulation appeared to be a very slight yellow solution. Stability was checked by HPLC analysis of pre- and post-dose aliquots. Animals were not fasted. The actual amount administered was determined by weighing the dose syringe before and after dose administration. The IV dose of 4 mg/kg was administered via a tail vein. For QWBA rats, one animal/time point was prepared for QWBA at approximately 0.25, 1, 4, 8, 24, 48, 168, and 336 hours. […] Blood was maintained on wet ice until being aliquoted for radioanalysis and centrifuged to obtain plasma. […] Each carcass was drained, blotted dry, placed into an appropriately labeled bag, and placed on dry ice or stored at ~-70 °C for at least 2 hours. The frozen carcasses were embedded in chilled carboxymethylcellulose and frozen into blocks. Embedded carcasses were stored at ~-20 °C in preparation for autoradiographic analysis. The samples were stored at -70 °C before analysis. […] Prior to section collection, standards fortified with ^14C radioactivity were placed into the frozen block containing the carcass and were used for monitoring the uniformity of section thickness. Appropriate sections were collected on adhesive tape at 40 μm thickness, in a Leica CM 3600 cryomicrotome in accordance with Covance standard operating procedures. Sections were collected at five levels of interest in the sagittal plane. All major tissues, organs, and biological fluids were represented. Collected sections were dried at ~-20 °C. A section set from each animal was prepared by mounting a representative section from each level of interest. Mounted sections were tightly wrapped with Mylar film and exposed on phosphor-imaging screens along with fortified blood standards for subsequent calibration of the image analysis software. Screens were exposed for 4 days. Exposed screens were scanned using a Typhoon scanner. The autoradiographic standard image data were sampled using InterFocus Imaging Ltd. MCIDTM Analysis software to create a calibrated standard curve. Specified tissues, organs, and fluids were analyzed. […] Tissue concentration data are presented in tabular format. Autoradiographs were annotated. The mean time concentration profile was generated for each group, and an overall AUC was then calculated with these sparse samples of rats and mice. […]

## Cc1ncsc1-c1ccc(C(C)NC(=O)C2CC(O)CN2C(=O)C(c2cc(N3CCC(CN4CCC(OC5CC(Oc6cc(N7C8CCC7CN(c7cc(-[14c]9[14cH][14cH][14cH][14cH][14c]9O)nnc7N)C8)ccn6)C5)CC4)CC3)no2)C(C)C)cc1 (stereo not drawn) [14C-A947]
  Half-life (t1/2) in tissues: 87 to 100 h
  Radioactivity t1/2, brain cerebellum: 11 h
  Radioactivity t1/2, small intestine: 167 h
iv, 4 mg/kg
  Cmax, adrenal glands: 17 µg/g
  Cmax, kidneys: 22 µg/g
  Cmax, liver: 32 µg/g
  Cmax, lungs: 12 µg/g
  Cmax, pancreas: 9 µg/g
  Cmax, salivary glands: 12 µg/g
  Cmax, spleen: 21 µg/g
  Cmax, thyroid gland: 18 µg/g
  t½: 111 h
